The TGI is the concentration giving total growth inhibition.

These results are taken from PubChem BioAssay (NCI).

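Method: 48-hour compound exposure of cells in 96-well plates, five concentrations, linear interpolation of endpoints. The concentration for full growth arrest is given as TGI.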

Among the test systems are A498 renal; A549 NSCLC; ACHN renal; BT-549 breast; CAKI-1 renal; DU-145 prostate; HCT-15 colon; HS 578T breast; HT29 colon; MDA-MB-231 breast; NCI-H522 lung; OVCAR-5 ovarian; PC-3 prostate; SF-295 CNS; SK-MEL-28 melanoma; SK-OV-3 ovarian; SR leukemia; U251 CNS; UACC-257 melanoma; EKVX NSCLC.
What all share (assay): DTP human tumour cell line panel, 48 h

With `O=C(CSc1nnc(-c2ccccn2)s1)N/N=C/c1ccccc1`, the TGI in the experiment with A498 renal, in the experiment with A549 NSCLC, with ACHN renal, with BT-549 breast, in the experiment with CAKI-1 renal and with DU-145 prostate was greater than 100 µM each time. The concentration for total growth inhibition (TGI) in the experiment on HCT-15 colon, with HS 578T breast, in the experiment with HT29 colon, in the experiment on MDA-MB-231 breast, with NCI-H522 lung and in the experiment with OVCAR-5 ovarian was greater than 100 µM throughout. Besides, the total growth inhibition concentration (TGI) with PC-3 prostate, with SF-295 CNS, in the experiment on SK-MEL-28 melanoma, with SK-OV-3 ovarian, with SR leukemia and in the experiment with U251 CNS was greater than 100 µM in each case. In the experiment with UACC-257 melanoma, this compound displayed a TGI greater than 100 µM.

Consider `Cc1cccc(Cl)c1NCC(O)CN1CCN(C)CC1` (centres undefined), for which the TGI with A498 renal, in the experiment with A549 NSCLC, in the experiment with ACHN renal, in the experiment with BT-549 breast, in the experiment with CAKI-1 renal and in the experiment on DU-145 prostate was greater than 100 µM in each case. For the same compound, the TGI with EKVX NSCLC, in the experiment on HCT-15 colon, in the experiment on HS 578T breast, in the experiment with HT29 colon, in the experiment on MDA-MB-231 breast and in the experiment on NCI-H522 lung was greater than 100 µM each time. Further, the TGI with OVCAR-5 ovarian, in the experiment on PC-3 prostate, with SF-295 CNS, in the experiment on SK-MEL-28 melanoma, with SR leukemia and in the experiment with U251 CNS was greater than 100 µM each time. Further, the TGI in the experiment on UACC-257 melanoma was greater than 100 µM.

For `Cc1ccc(C2(O)CSC(=NC34CC5CC(CC(C5)C3)C4)N2C(P(=O)(O)O)P(=O)(O)O)cc1` (centres undefined), the TGI in the experiment on A498 renal, in the experiment with A549 NSCLC, in the experiment with ACHN renal, with BT-549 breast, in the experiment with CAKI-1 renal and with DU-145 prostate was greater than 100 µM each time. The TGI in the experiment on EKVX NSCLC, in the experiment on HCT-15 colon, with HS 578T breast, in the experiment with HT29 colon, with MDA-MB-231 breast and in the experiment with OVCAR-5 ovarian was greater than 100 µM throughout. In addition, the TGI in the experiment on PC-3 prostate, in the experiment with SF-295 CNS, in the experiment with SK-MEL-28 melanoma, with SK-OV-3 ovarian, in the experiment with SR leukemia and in the experiment on U251 CNS was greater than 100 µM throughout.

As to `N#Cc1c(-c2ccc(Cl)cc2)c2c(n(C3OC(CO)C(O)C(O)C3O)c1=S)CCCC2` (centres undefined), the total growth inhibition concentration (TGI) with A498 renal, in the experiment with A549 NSCLC, with ACHN renal, in the experiment on BT-549 breast, with CAKI-1 renal and in the experiment with DU-145 prostate was greater than 100 µM each time. For the same compound, the TGI in the experiment with EKVX NSCLC, with HCT-15 colon, in the experiment with HS 578T breast, in the experiment with HT29 colon, in the experiment with MDA-MB-231 breast and with NCI-H522 lung was greater than 100 µM throughout. Further, the TGI in the experiment with OVCAR-5 ovarian, with PC-3 prostate, in the experiment with SF-295 CNS, in the experiment with SK-MEL-28 melanoma, in the experiment with SR leukemia and in the experiment on U251 CNS was greater than 100 µM throughout. Moreover, the TGI in the experiment on UACC-257 melanoma was greater than 100 µM.

Regarding `CC(C)NC(=O)OCc1c2c(n(C)c1COC(=O)NC(C)C)-c1cc(Cl)c(Cl)cc1CC2`, the total growth inhibition concentration (TGI) with A498 renal is 18.7 µM; in the experiment with A549 NSCLC, greater than 100 µM; in the experiment with ACHN renal it was greater than 100 µM; in the experiment with BT-549 breast, greater than 100 µM; in the experiment on DU-145 prostate, greater than 100 µM; in the experiment on EKVX NSCLC, greater than 100 µM. In addition, the TGI in the experiment on HCT-15 colon was greater than 100 µM; with HS 578T breast it was greater than 100 µM; in the experiment with HT29 colon it was greater than 100 µM; in the experiment on MDA-MB-231 breast, 55.3 µM; with OVCAR-5 ovarian it was greater than 100 µM; with PC-3 prostate, greater than 100 µM. The TGI in the experiment with SF-295 CNS was greater than 100 µM; in the experiment on SK-MEL-28 melanoma it was greater than 100 µM; with SK-OV-3 ovarian, greater than 100 µM; with SR leukemia, greater than 100 µM; in the experiment with U251 CNS, 40.6 µM; with UACC-257 melanoma it was 86.8 µM.

Regarding `N#Cc1ccc(-c2nc3c(N)ncnc3o2)cc1`, the TGI with A498 renal, in the experiment with A549 NSCLC, with ACHN renal, in the experiment with BT-549 breast, in the experiment with CAKI-1 renal and with DU-145 prostate was greater than 100 µM in each case. In addition, the TGI with EKVX NSCLC, in the experiment with HCT-15 colon, in the experiment with HS 578T breast, with HT29 colon, in the experiment on MDA-MB-231 breast and with NCI-H522 lung was greater than 100 µM each time. The total growth inhibition concentration (TGI) with OVCAR-5 ovarian, in the experiment with PC-3 prostate, with SF-295 CNS, with SK-MEL-28 melanoma, in the experiment on SR leukemia and in the experiment on UACC-257 melanoma was greater than 100 µM throughout.

As to `CC(=O)OCC1OC(N2C(C)=C(C(C)=O)C(c3ccc(Cl)cc3)C(C#N)=C2S)C(OC(C)=O)C(OC(C)=O)C1OC(C)=O` (centres undefined), the TGI in the experiment on A498 renal, with A549 NSCLC, with ACHN renal, in the experiment with BT-549 breast, in the experiment on CAKI-1 renal and in the experiment with DU-145 prostate was greater than 100 µM in each case. The TGI with HCT-15 colon, with HS 578T breast, with HT29 colon, with MDA-MB-231 breast, with NCI-H522 lung and in the experiment on OVCAR-5 ovarian was greater than 100 µM throughout. In addition, the TGI with PC-3 prostate, in the experiment on SF-295 CNS, in the experiment with SK-MEL-28 melanoma, with SR leukemia, with U251 CNS and in the experiment with UACC-257 melanoma was greater than 100 µM in each case.
